Experimental data published in patent US20030104507A1, “Method for detection of ATP” (priority 2001, published 2003).

Assays:
LucPpe2m146 = assay: Duration of luminescence (signal stability) and effects of media and sera, DTAB, ± pyrophosphate; format: biochemical, Photuris pennsylvanica; settings: 10 μM sodium pyrophosphate
Protocol: In some embodiments, the compositions of the invention were added to intact cells to lyse them, and then ATP detected. In other embodiments, conditioned culture media were themselves assayed for ATP. However, the various components of media, such as buffers, sugars, amino acids, pH indicators, salts, etc., as well as the various factors found in serum (equine, bovine, etc.) may inhibit luciferase activity.
The luciferase-luciferin reaction was initiated by combining 100 μl of the reagent composition composition with 100 μl cell media with serum, varying final concentrations of DTAB (as indicated below in Table Q) and 1.0 μM ATP was added to each reaction plus or minus 10 μM sodium pyrophosphate in wells of a 96-well microtiter luminometer plate; each experimental condition was prepared in triplicate. At various times after initiating the reaction, rlu values were recorded using an Orion microplate luminometer (Berthold Detection Systems; Pforzheim, Germany).

[1] = system: ATPase activity endogenous to L929 cell lysate; assay: Detergent inhibition of ATPase endogenous to L929 cell lysate (ATP remaining by luciferase luminescence, 22° C.); format: biochemical; set-up: key to Relative ATPase Activity, slope det/slope lysate: slope with detergent / slope without; ≥1.0 = 100% activity, 0.5 = 50%
Protocol: Three separate detergents in each of four detergent classes were tested: anionic [SDS (Sodium dodecyl sulfate), Bioterge (an α olefin sulfate), and sodium deoxycholate], nonionic [TRITON X-100, BigCHAP (N,N-bis(3-D-Gluconamidopropyl)cholamide) and THESIT (polyethylene glycol 400 dodecyl ether, Fluka, #88315)], cationic [BDDABr (Benzyldimethyldodecylammonium bromide), CTAB (Cetyltrimethylammonium bromide), and DTAB (dodecyltrimethylammonium bromide)] and zwitterionic [CHAPS (3[(3-Cholamidopropyl)dimethylammonio]propanesulfonic acid), CHAPSO (3-([3-Cholamidopropyl]dimethylammonio)-2-hydroxy-1-propanesulfonate), and Sulfobetaine 3-10 ([…]-N,N-dimethyl-3-ammonio-1-propanesulfonate)]. Detergents were obtained from Sigma, Fluka and Aldrich.
L929 cells (ATCC CCL-1; 1.5×10^5 cells/ml) in F12/DMEM (Hyclone, SH30023) containing 10% horse serum (Hyclone, SH30074) were frozen and thawed for four cycles to create a cell lysate. Then 50 μl of stock detergent solutions [10%, 5.0%, 1.0%, and 0.5% (w/v)] were separately added to 450 μl cell lysate, creating a final detergent concentration in the cell lysate sample of 1.0%, 0.5%, 0.1%, and 0.05%, respectively (these percentage values are those used in Tables D and E herein below). Control samples contained either lysate only or 1.0 μM ATP in 15 mM HEPES buffer (pH 7.5). All samples were incubated at 22° C. (room temperature) for the duration of the experiment.
At various timepoints, 20 μl from each sample/detergent mixture was added to a 96-well luminometer plate in triplicate, and then 100 μl of a solution (“luciferase-luciferin” or “L/L reagent”) containing 25 mM HEPES buffer (pH 7.5), 40 μg luciferase enzyme LucPpe2m146 (Promega, E140), 100 μM luciferin (Promega), and 10 mM MgSO4 was added to each well. The L/L reagent was stored at 4° C. for the duration of the experiment and then allowed to reach ambient temperature just before assaying. After mixing the contents of the plate, light output was measured with a Dynex MLX microtiter plate luminometer (Chantilly, Va.), 0.5 second reads per well with the first measurement taken five minutes after the detergent solution was combined with the sample. The average relative light units and the timepoint at which it was measured (rlu; Table D) and percent of remaining luciferase activity at the timepoint (Table E) are reported; controls were run with each set of experimental conditions as indicated. The cationic and anionic detergents were assayed on one day with one set of controls. The zwitterionic and nonionic detergents were assayed on a separate day with a separate set of controls. The DTAB at 0.5% was assayed on both days (1 and 2).
The experiment was performed as detailed in Example 1. The average relative light unit values and the percent of ATP remaining values are listed below in Table F and G respectively.
The log of the percent of ATP remaining after original timepoint values from Table E and Table G were plotted on the y axis against time (in minutes) on the x axis. The slope of the line generated by these values in the presence of detergent was divided by the slope of the line generated by the values in the absence of detergent (lysate control) resulting in the Relative ATPase Activity values listed below in Table H.
A relative activity value of 1.0 or greater indicates 100% cellular ATPase activity at the concentration of detergent tested. A relative activity value of 0.5 indicates a two-fold (or 50%) decrease in the level of cellular ATPase activity at the concentration of detergent tested when compared to the ATPase activity level in the absence of the detergent. A relative activity value of 0.2 indicates a five-fold (or 80%) decrease in the level of cellular ATPase activity at the concentration of detergent tested when compared to the ATPase activity level in the absence of the detergent.

## O=P([O-])([O-])OP(=O)([O-])[O-].[Na+].[Na+].[Na+].[Na+] [Ppi, sodium pyrophosphate]
LucPpe2m146
  decrease of luminescence: ten-fold

## TRITON X-100
[1]; 0.05% detergent, 5 min
  Average Relative Light Unit Values: 6160.71 rlu
  Percent ATP Remaining: 100%
[1]; 0.05% detergent, 75 min
  Average Relative Light Unit Values: 1964.17 rlu
  Percent ATP Remaining: 31.9%
[1]; 0.05% detergent, 169 min
  Average Relative Light Unit Values: 822.48 rlu
  Percent ATP Remaining: 13.4%
[1]; 0.05% detergent, 222 min
  Average Relative Light Unit Values: 303.73 rlu
  Percent ATP Remaining: 4.9%
[1]; 0.05% detergent, 260 min
  Average Relative Light Unit Values: 147.48 rlu
  Percent ATP Remaining: 2.4%
[1]; 0.05 percent detergent
  Relative ATPase Activity, slope det/slope lysate: 1.228
  Slope (log percent ATP remaining vs time in minutes): −0.0065
[1]; 0.1% detergent, 5 min
  Average Relative Light Unit Values: 6837.20 rlu
  Percent ATP Remaining: 100%
[1]; 0.1% detergent, 75 min
  Average Relative Light Unit Values: 3004.57 rlu
  Percent ATP Remaining: 43.9%
[1]; 0.1% detergent, 169 min
  Average Relative Light Unit Values: 1643.05 rlu
  Percent ATP Remaining: 24.0%
[1]; 0.1% detergent, 222 min
  Average Relative Light Unit Values: 801.38 rlu
  Percent ATP Remaining: 11.7%
[1]; 0.1% detergent, 260 min
  Average Relative Light Unit Values: 448.93 rlu
  Percent ATP Remaining: 6.6%
[1]; 0.10 percent detergent
  Relative ATPase Activity, slope det/slope lysate: 0.889
  Slope (log percent ATP remaining vs time in minutes): −0.0047
[1]; 0.5% detergent, 5 min
  Average Relative Light Unit Values: 6106.61 rlu
  Percent ATP Remaining: 100%
[1]; 0.5% detergent, 75 min
  Average Relative Light Unit Values: 1880.98 rlu
  Percent ATP Remaining: 30.8%
[1]; 0.5% detergent, 169 min
  Average Relative Light Unit Values: 871.01 rlu
  Percent ATP Remaining: 14.3%
[1]; 0.5% detergent, 222 min
  Average Relative Light Unit Values: 378.58 rlu
  Percent ATP Remaining: 6.2%
[1]; 0.5% detergent, 260 min
  Average Relative Light Unit Values: 195.42 rlu
  Percent ATP Remaining: 3.2%
[1]; 0.50 percent detergent
  Relative ATPase Activity, slope det/slope lysate: 1.117
  Slope (log percent ATP remaining vs time in minutes): −0.0059
[1]; 1.0% detergent, 5 min
  Average Relative Light Unit Values: 6073.78 rlu
  Percent ATP Remaining: 100%
[1]; 1.0% detergent, 75 min
  Average Relative Light Unit Values: 1774.10 rlu
  Percent ATP Remaining: 29.2%
[1]; 1.0% detergent, 169 min
  Average Relative Light Unit Values: 839.14 rlu
  Percent ATP Remaining: 13.8%
[1]; 1.0% detergent, 222 min
  Average Relative Light Unit Values: 331.95 rlu
  Percent ATP Remaining: 5.5%
[1]; 1.0% detergent, 260 min
  Average Relative Light Unit Values: 174.89 rlu
  Percent ATP Remaining: 2.9%
[1]; 1.00 percent detergent
  Relative ATPase Activity, slope det/slope lysate: 1.152
  Slope (log percent ATP remaining vs time in minutes): −0.0061

## polyethylene glycol 400 dodecyl ether [THESIT]
[1]; 0.05% detergent, 5 min
  Average Relative Light Unit Values: 5632.96 rlu
  Percent ATP Remaining: 100%
[1]; 0.05% detergent, 75 min
  Average Relative Light Unit Values: 1601.09 rlu
  Percent ATP Remaining: 28.4%
[1]; 0.05% detergent, 169 min
  Average Relative Light Unit Values: 623.38 rlu
  Percent ATP Remaining: 11.1%
[1]; 0.05% detergent, 222 min
  Average Relative Light Unit Values: 211.67 rlu
  Percent ATP Remaining: 3.8%
[1]; 0.05% detergent, 260 min
  Average Relative Light Unit Values: 110.15 rlu
  Percent ATP Remaining: 2.0%
[1]; 0.05 percent detergent
  Relative ATPase Activity, slope det/slope lysate: 1.295
  Slope (log percent ATP remaining vs time in minutes): −0.0068
[1]; 0.1% detergent, 5 min
  Average Relative Light Unit Values: 6022.32 rlu
  Percent ATP Remaining: 100%
[1]; 0.1% detergent, 75 min
  Average Relative Light Unit Values: 2654.97 rlu
  Percent ATP Remaining: 44.1%
[1]; 0.1% detergent, 169 min
  Average Relative Light Unit Values: 1509.07 rlu
  Percent ATP Remaining: 25.1%
[1]; 0.1% detergent, 222 min
  Average Relative Light Unit Values: 755.94 rlu
  Percent ATP Remaining: 12.6%
[1]; 0.1% detergent, 260 min
  Average Relative Light Unit Values: 447.44 rlu
  Percent ATP Remaining: 7.4%
[1]; 0.10 percent detergent
  Relative ATPase Activity, slope det/slope lysate: 0.850
  Slope (log percent ATP remaining vs time in minutes): −0.0045
[1]; 0.5% detergent, 5 min
  Average Relative Light Unit Values: 6392.75 rlu
  Percent ATP Remaining: 100%
[1]; 0.5% detergent, 75 min
  Average Relative Light Unit Values: 2304.48 rlu
  Percent ATP Remaining: 36.0%
[1]; 0.5% detergent, 169 min
  Average Relative Light Unit Values: 1122.24 rlu
  Percent ATP Remaining: 17.6%
[1]; 0.5% detergent, 222 min
  Average Relative Light Unit Values: 487.28 rlu
  Percent ATP Remaining: 7.6%
[1]; 0.5% detergent, 260 min
  Average Relative Light Unit Values: 240.72 rlu
  Percent ATP Remaining: 3.8%
[1]; 0.50 percent detergent
  Relative ATPase Activity, slope det/slope lysate: 1.065
  Slope (log percent ATP remaining vs time in minutes): −0.0056
[1]; 1.0% detergent, 5 min
  Average Relative Light Unit Values: 6204.02 rlu
  Percent ATP Remaining: 100%
[1]; 1.0% detergent, 75 min
  Average Relative Light Unit Values: 1979.43 rlu
  Percent ATP Remaining: 31.9%
[1]; 1.0% detergent, 169 min
  Average Relative Light Unit Values: 968.14 rlu
  Percent ATP Remaining: 15.6%
[1]; 1.0% detergent, 222 min
  Average Relative Light Unit Values: 416.45 rlu
  Percent ATP Remaining: 6.7%
[1]; 1.0% detergent, 260 min
  Average Relative Light Unit Values: 210.78 rlu
  Percent ATP Remaining: 3.4%
[1]; 1.00 percent detergent
  Relative ATPase Activity, slope det/slope lysate: 1.096
  Slope (log percent ATP remaining vs time in minutes): −0.0058
